Assay [1] deals with T1, CT775 (LpaT), lysophospholipid acyltransferase (Chlamydia trachomatis, UniProt O84780).
T1 construct: gene CT_775; expressed in E. coli BL21(DE3), membrane fraction (microsomes); cloning reported previously
T1 sequence (O84780 1-253): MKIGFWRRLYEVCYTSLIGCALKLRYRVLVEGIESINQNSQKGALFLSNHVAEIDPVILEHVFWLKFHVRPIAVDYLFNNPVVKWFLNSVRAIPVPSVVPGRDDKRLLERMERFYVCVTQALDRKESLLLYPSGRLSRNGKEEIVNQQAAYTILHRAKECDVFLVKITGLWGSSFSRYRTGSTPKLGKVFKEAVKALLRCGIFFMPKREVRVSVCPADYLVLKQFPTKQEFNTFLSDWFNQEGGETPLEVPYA
Nature of the assay: NBD-PC formation, TLC, bee venom PLA2 digestion, microsomes. The assay is classed as biochemical. The settings on record: 1 µM NBD-C16-CoA, 10 µM 1-C16-GPC, pH 7.4, 30 °C; acyl acceptor.

Assay [2] deals with T2, hACSL6-iso2 (human long-chain acyl-CoA synthetase 6) (Homo sapiens, UniProt Q9UKU0).
T2 construct: gene ACSL6; hexahistidine fusion, Ni-NTA partially purified, CHAPS lysis
T2 sequence (Q9UKU0 1-697): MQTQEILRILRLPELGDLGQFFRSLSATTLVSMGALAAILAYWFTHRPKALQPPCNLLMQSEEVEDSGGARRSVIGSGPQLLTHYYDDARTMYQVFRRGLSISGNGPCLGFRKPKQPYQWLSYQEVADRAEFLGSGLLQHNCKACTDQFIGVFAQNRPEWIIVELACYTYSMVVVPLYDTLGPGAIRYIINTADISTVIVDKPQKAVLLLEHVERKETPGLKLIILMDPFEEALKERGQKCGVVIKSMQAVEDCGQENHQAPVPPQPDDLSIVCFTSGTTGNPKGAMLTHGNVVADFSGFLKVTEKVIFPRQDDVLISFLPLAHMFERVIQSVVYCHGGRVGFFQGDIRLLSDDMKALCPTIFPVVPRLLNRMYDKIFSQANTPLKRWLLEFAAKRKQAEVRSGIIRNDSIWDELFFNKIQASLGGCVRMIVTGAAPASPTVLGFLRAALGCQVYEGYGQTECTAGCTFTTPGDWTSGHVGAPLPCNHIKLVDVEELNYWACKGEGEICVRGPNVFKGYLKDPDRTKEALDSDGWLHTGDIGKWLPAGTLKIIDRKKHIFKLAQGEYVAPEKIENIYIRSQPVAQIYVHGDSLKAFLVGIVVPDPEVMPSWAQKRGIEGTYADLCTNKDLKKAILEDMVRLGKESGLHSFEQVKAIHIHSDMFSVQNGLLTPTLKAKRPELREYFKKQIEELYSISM
Nature of the assay: acyl-CoA / acyl-AMP formation. The class given is biochemical. The settings on record: with fatty acid and CoASH.

The next assay deals with T3, human LPCAT1 (hLPCAT1) (Homo sapiens, UniProt Q8NF37).
T3 construct: expressed in E. coli BL21(DE3), membrane fraction; cloning reported previously
T3 sequence (Q8NF37 1-534): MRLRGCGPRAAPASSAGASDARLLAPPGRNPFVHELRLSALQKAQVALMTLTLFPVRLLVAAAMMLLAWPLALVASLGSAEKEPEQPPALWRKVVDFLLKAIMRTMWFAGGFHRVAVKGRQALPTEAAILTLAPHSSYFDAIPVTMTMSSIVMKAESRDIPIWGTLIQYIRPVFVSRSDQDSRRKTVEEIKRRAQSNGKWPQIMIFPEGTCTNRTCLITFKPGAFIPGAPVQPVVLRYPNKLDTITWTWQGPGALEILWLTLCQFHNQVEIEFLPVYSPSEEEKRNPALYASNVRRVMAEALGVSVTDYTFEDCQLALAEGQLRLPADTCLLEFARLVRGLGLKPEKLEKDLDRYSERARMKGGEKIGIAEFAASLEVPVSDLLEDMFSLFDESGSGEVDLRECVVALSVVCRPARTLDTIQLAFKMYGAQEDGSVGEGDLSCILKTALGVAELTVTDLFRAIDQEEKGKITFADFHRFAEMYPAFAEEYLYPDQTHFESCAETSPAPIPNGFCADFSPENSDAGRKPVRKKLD
Kind of assay: competition with NBD-C16-CoA acylation of 1-C16-GPC, TLC fluorescence, microsomes. The class given is biochemical. The conditions noted are these: 0.5 µM NBD-C16-CoA, 20 µM 1-C16-GPC, 0.25-1.0 µM competitor, 30 °C; competing acyl donor.

Assay [3] addresses T2, hACSL6-iso2 (human long-chain acyl-CoA synthetase 6). Nature of the assay: competition with […]C18:1-CoA formation. The assay is classed as biochemical. The conditions noted are these: 1 µM [14C]C18:1-OH, ATP, CoASH, 0.15 µM enzyme, 30 °C; competing substrate.
Assay [4] concerns the target T4, CT699 (PsdD), PS-decarboxylase (Chlamydia trachomatis, UniProt P0CD79).
T4 construct: gene psd; full-length, pET28a, expressed in E. coli BL21(DE3), lysate
T4 sequence (P0CD79 1-259): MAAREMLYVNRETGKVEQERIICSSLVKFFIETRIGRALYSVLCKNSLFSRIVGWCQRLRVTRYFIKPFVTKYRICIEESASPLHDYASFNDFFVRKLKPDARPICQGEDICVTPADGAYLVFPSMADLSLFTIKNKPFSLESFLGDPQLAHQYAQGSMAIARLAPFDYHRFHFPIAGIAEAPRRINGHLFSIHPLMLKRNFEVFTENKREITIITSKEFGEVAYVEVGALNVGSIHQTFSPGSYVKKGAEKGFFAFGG
T4 sequence (P0CD79 260-301): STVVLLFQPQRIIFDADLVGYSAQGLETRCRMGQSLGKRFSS
Kind of assay: conversion of NBD-PS to NBD-PE, TLC fluorescence, E. coli lysate vs vector control. The class given is cell-based. The conditions noted are these: 2 µM NBD-PS, Tris pH 7.4, 37 °C; labelled compound.

Assay [5] addresses T5, AasC (CT776), Chlamydia acyl-ACP synthase (Chlamydia trachomatis, UniProt O84781).
T5 construct: gene aas; full-length, pET28a, expressed in E. coli BL21(DE3), crude lysate
T5 sequence (O84781 1-537): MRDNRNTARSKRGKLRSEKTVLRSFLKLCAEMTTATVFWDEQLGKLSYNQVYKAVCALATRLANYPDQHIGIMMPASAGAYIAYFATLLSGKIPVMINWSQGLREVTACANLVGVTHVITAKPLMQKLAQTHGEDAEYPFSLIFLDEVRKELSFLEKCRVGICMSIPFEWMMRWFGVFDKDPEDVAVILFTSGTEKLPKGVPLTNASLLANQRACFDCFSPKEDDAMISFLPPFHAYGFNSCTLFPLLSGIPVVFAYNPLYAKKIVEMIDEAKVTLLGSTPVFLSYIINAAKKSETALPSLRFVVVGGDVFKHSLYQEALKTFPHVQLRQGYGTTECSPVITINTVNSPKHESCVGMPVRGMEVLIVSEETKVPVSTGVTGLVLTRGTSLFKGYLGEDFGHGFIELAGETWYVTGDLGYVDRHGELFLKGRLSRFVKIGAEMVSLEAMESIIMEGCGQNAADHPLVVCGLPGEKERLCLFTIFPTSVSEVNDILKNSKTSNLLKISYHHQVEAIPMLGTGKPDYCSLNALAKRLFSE
Kind of assay: […]-phospholipid formation from […]-palmitate in E. coli lysate, TLC. The assay is classed as biochemical. The conditions noted are these: 5 µM [14C]C16-OH, 10 mM ATP, 20 mM MgCl2, pH 7.4, 30 °C; E. coli acyl carrier and acyltransferase in lysate.

In assay [6] the target is T5, AasC (CT776), Chlamydia acyl-ACP synthase. The assay is described as above. The assay is classed as biochemical. The conditions noted are these: 5 µM [14C]C16-OH, 10 mM ATP, 20 mM MgCl2, pH 7.4, 30 °C; E. coli acyl carrier and acyltransferase in lysate. The source holds these as a separate data set.

This is an account of results in article PMC5693948, “Phosphatidylserine decarboxylase CT699, lysophospholipid acyltransferase CT775, and acyl-ACP synthase CT776 provide membrane lipid diversity to Chlamydia trachomatis” (Scientific Reports, 2017).

Each structure is given as a SMILES string.

Turning to `CCCCCCCCCCCCCCCC(=O)OC[C@@H](O)COP(=O)([O-])OCC[N+](C)(C)C` [1-C16-sn-glycerol-3-P-choline, 1-palmitoyl-2-hydroxy-sn-glycero-3-phosphocholine], the “NBD-PC formation, TLC, bee venom PLA2 digestion, microsomes” value in assay [1] is on record as “NBD-acyl group had been transferred by CT775 to the sn2 position of the 1-C16-GPC isomer”.

Take `Nc1ncnc2c1ncn2[C@@H]1O[C@H](COP(=O)(O)OP(=O)(O)OP(=O)(O)O)[C@@H](O)[C@H]1O` [ATP]: the “acyl-CoA / acyl-AMP formation” value in assay [2] is “In the presence of both ATP and CoASH, acyl-CoA is formed from fatty acids”.

Regarding `CCCCCCCC/C=C\CCCCCCCC(=O)SCCNC(=O)CCNC(=O)[C@H](O)C(C)(C)COP(=O)(O)OP(=O)(O)OC[C@H]1O[C@@H](n2cnc3c(N)ncnc32)[C@H](O)[C@@H]1OP(=O)(O)O` [C18:1-CoA], the “% of activity without competitor” value on human LPCAT1 (hLPCAT1) was “MeC18-CoA was a stronger competitor than C18:1-CoA”.

Regarding `CC(C)CCCCCCCCCC(=O)O` [MeC12-OH], in assay [3], the “competition at 10 μM” value is “The shorter chain MeC12-OH also competed but not as efficiently as MeC18-OH”.

Turning to `CC(C)CCCCCCCCCCCCCCCC(=O)SCCNC(=O)CCNC(=O)[C@H](O)C(C)(C)COP(=O)(O)OP(=O)(O)OC[C@H]1O[C@@H](n2cnc3c(N)ncnc32)[C@H](O)[C@@H]1OP(=O)(O)O` [MeC18-CoA], the “% of activity without competitor” value at human LPCAT1 (hLPCAT1) was “NBD-C16-CoA to 1-acyl-GPC by hLPCAT1 was strongly reduced in the presence of MeC18-CoA”.

For `CC(C)CCCCCCCCCCCCCCCC(=O)O` [MeC18-OH], the “competition at 10 μM” value in assay [3] is “this long-chain odd fatty acid was as good a substrate for hACSL6 as C18:1-OH”.

Consider `CCCCCCCCCCCCCCCC(=O)OC[C@H](COP(=O)(O)OC[C@H](N)C(=O)O)OC(=O)CCCCCNc1ccc([N+](=O)[O-])c2nonc12` [NBD-PS, 1-palmitoyl-2-(6-[(7-nitro-2-1,3-benzoxadiazol-4-yl)amino]hexanoyl)-sn-glycero-3-phosphoserine], for which the “conversion of NBD-PS to NBD-PE, TLC fluorescence, E. coli lysate vs vector contr” value in assay [4] is “CT699 was active and able to convert fluorescent NBD-PS into NBD-PE”.

`CN(CCOc1ccc(CC2SC(=O)NC2=O)cc1)c1ccccn1` (stereo not drawn) [rosiglitazone G]: in assay [5], the “% inhibition at 100 μM” value is listed as “both drugs had a significant inhibitory effect on FA incorporation in the presence of the AasC”.

Regarding `CCC/C=C/C/C=C/C=C/C=N/NN=O` [triacsin C], the “% inhibition at 5 μM” value in assay [6] is reported as “both drugs had a significant inhibitory effect on FA incorporation in the presence of the AasC”.
